For the test, the target named is MK2 kinase (Homo sapiens, UniProt P49137). The test can be described thus: bMK2 IMAP assay.

Where two headings read alike, the source gives them in different places.

Chain of MK2 kinase (P49137 whole entry): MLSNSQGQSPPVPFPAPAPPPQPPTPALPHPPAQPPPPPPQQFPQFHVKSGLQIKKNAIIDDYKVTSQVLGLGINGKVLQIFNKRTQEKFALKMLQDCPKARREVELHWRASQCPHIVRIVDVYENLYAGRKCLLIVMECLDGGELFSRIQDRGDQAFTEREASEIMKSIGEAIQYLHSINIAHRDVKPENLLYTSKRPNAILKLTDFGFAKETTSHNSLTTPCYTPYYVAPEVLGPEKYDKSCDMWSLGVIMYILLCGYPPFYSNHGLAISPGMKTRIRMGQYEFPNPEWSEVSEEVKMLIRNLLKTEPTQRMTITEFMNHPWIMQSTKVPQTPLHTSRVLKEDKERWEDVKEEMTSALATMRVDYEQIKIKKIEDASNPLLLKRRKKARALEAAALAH
Protocol: 5× Reaction Buffer T (Molecular Device, R7364)
10 mM ATP (New England, P0756S)
Substrate: TAMRA labeled Glycogen.
5× Progressive Binding Buffer A (Molecular Device, R7279)
Progressive Binding Reagent (Molecular Device, R7281)
The final concentrations are: 1× inhibitor, 1% DMSO, 100 μM ATP, 50 pM MK2 and 100 nM substrate.
The reaction was stopped by adding 60 μl of 1:400 diluted Progressive Binding Reagent in 1× Progressive Binding Buffer A and incubating 30 min in the dark.
The degree of MK2 inhibition was calculated from the change in phosphorylated peptide generated in the presence of inhibitor compound added to each reaction followed by a 90 min reaction time. Basal MK2 activity was assessed in the absence of ATP which is required for enzymatic activity.

On to `O=C1c2oc(-c3ccccc3)cc2Cc2cc(C3CCNCC3)ccc2N1Cc1ccccc1-c1ccccc1` [Compound 20], for which the IC50 (in general, the concentration that gives 50% inhibition) lay in the range of 1000 to 10000 nM.
Consider `O=C1c2oc(-c3ccc(Cl)cc3)cc2Cc2cc(N3CCNCC3)ccc2N1Cc1ccccc1-c1cccnc1` [Compound 5], for which the half-inhibitory concentration (IC50) is, setting by setting: (IC50 Value, IMAP fluorescence polarization, 100 μM ATP, 50 pM MK2, 100 nM TAMRA peptide substrate) 10 to 100 nM; (IC50 values, IMAP fluorescence polarization, 100 μM ATP, 50 pM MK2, 100 nM TAMRA peptide substrate) 38.3 nM.
Turning to `O=C1c2sc(-c3ccc(Cl)cc3)cc2Cc2cc(N3CCNCC3)ccc2N1Cc1ccccn1` [Compound 24], the IC50 was 1000 to 10000 nM.
Take `O=C1Nc2ccc(N3CCNCC3)cc2Cc2cc(-c3ccc(Cl)cc3)sc21` [Compound 23]: the IC50 fell in the range of 1000 to 10000 nM.
On the same count and under the same terms, to `CN1CCN(c2ccc3c(c2)Cc2cc(-c4ccc(Cl)cc4)oc2C(=O)N3Cc2ccccc2-c2cccnc2)CC1` [Compound 6] belongs 10 to 100 nM; to `COc1ccc(-c2ccccc2CN2C(=O)c3oc(-c4ccc(Cl)cc4)cc3Cc3cc(N4CCNCC4)ccc32)cn1` [Compound 17], 10 to 100 nM; to `O=C1c2oc(-c3ccc(Cl)cc3)cc2Cc2cc(C3CCNCC3)ccc2N1Cc1ccccc1-c1ccccc1` [Compound 16], 100 to 1000 nM.
`COc1ncc(-c2ccccc2CN2C(=O)c3oc(-c4ccc(Cl)cc4)cc3Cc3cc(N4CCNCC4)ccc32)cn1` [Compound 22] had an IC50 of 10 to 100 nM.
On to `COCN1C(=O)c2oc(-c3ccc(C#N)cc3)cc2Cc2cc(N3CCNCC3)ccc21` [Compound 13], for which the IC50 was 1 to 10 nM.
For `Nc1ccc(-c2ccccc2CN2C(=O)c3oc(-c4ccc(Cl)cc4)cc3Cc3cc(N4CCNCC4)ccc32)cn1` [Compound 11], the IC50 was 10 to 100 nM.
On to `N#Cc1ccc(-c2cc3c(s2)C(=O)N(Cc2ccccn2)c2ccc(N4CCNCC4)cc2C3)cc1` [Compound 26], for which the IC50 lay within 1000 to 10000 nM.
Compound `N#Cc1ccc(-c2cc3c(s2)C(=O)N(Cc2ccccc2-c2cncnc2)c2ccc(N4CCNCC4)cc2C3)cc1` [Compound 27] displayed an IC50 of 100 to 1000 nM.
The compound `O=C1Nc2ccc(C3CCNCC3)cc2Cc2cc(-c3ccccc3)oc21` [Compound 18] showed an IC50 of 100 to 1000 nM.
On to `N#Cc1ccc(-c2cc3c(s2)C(=O)Nc2ccc(N4CCNCC4)cc2C3)cc1` [Compound 25], for which the IC50 lay in the range of 1000 to 10000 nM.
Same read-out and setting: the value for `COc1ccncc1-c1ccccc1CN1C(=O)c2oc(-c3ccc(Cl)cc3)cc2Cc2cc(N3CCNCC3)ccc21` [Compound 21] was 10 to 100 nM.
